In patent publication US6936602B1, “Benzazepine derivatives, process for the preparation of the same and uses thereof” (Takeda Chemical Industries, Ltd., priority 1999, dated 2005):

Experiments:
human CCR5 = molecular target: T1, human CCR5 (Homo sapiens, UniProt P51681); assay: Evaluation of test compounds based on CCR5 antagonistic activity: inhibition of [125I]-RANTES binding to CCR5/CHO cells; settings: Test Compound 1 μM, 100 pM [125I]-RANTES, room temperature for 40 minutes, read-out: Inhibitory Rate (%)
T1 construct: expressed in transfected cells
Method: Cloning of CCR5 gene was carried out by a PCR method from human spleen cDNA. With using 0.5 ng of spleen cDNA (Toyobo, QUICK-Clone cDNA) as template, PCR was performed in DNA Thermal Cycler 480 (Perkin-Elmer) (reaction conditions: 30 cycles of 95° C. for 1 minute, 60° C. for 1 minute, and 75° C. for 5 minutes) by adding each 25 pmol of primers of a primer set, • SEQ ID NO.: 1 described in Test Example (1) of WO 99/32100 [length of sequence: 34; type of sequence: nucleic acid; strandedness: single; topology: straight; kind of sequence: other nucleic acid synthetic DNA, and • SEQ ID NO.: 2 described in Test Example (1) of WO 99/32100 [length of sequence: 34; type of sequence: nucleic acid; strandedness: single; topology: straight; kind of sequence: other nucleic acid synthetic DNA which were designed referring to nucleotide sequence of CCR5 gene reported by Samson et. al. (Biochemistry, 35(11), 3362-3367 (1996)) and by using TaKaRa EX Taq (Takara Shuzo). The resultant PCR product was subjected to agarose gel electrophoresis to collect about 1.0 kb DNA fragment, which was subjected to Original TA Cloning Kit (Funakoshi) to carry out cloning of CCR5 gene. (2) Preparation of Plasmid for Expression of Human CCR5
The plasmid obtained in the above (1) was digested with restriction enzymes XbaI (Takara Shuzo) and BamHI (Takara Shuzo) and subjected to agarose gel electrophoresis to collect about 1.0 kb DNA fragment.
The DNA fragment was mixed with plasmid pcDNA3.1 (Funakoshi) for expression in animal cells, said plasmid being digested with XbaI and BamHI, and they were ligated with DNA Ligation Kit Ver.2 (Takara Shuzo). The resulting plasmid was subjected to transformation of competent cell of E. coli JM109 (Takara Shuzo) to obtain plasmid pCKR5.
CHO-K1 cells were grown in 750 ml of tissue culture flask (Becton Dickinson) using Ham's F12 medium (Nihon Pharmaceutical) containing 10% fetal calf serum (Life Tech Oriental) and taken off with 0.5 g/L trypsin-0.2 g/L EDTA (Life Tech Oriental). The cells were washed with PBS (Life Tech Oriental), centrifuged (1000 rpm, 5 minutes), and suspended in PBS. With using Gene Pulser (Bio-Rad Laboratories), DNA was introduced into the cells under the conditions shown below. That is, to the cuvette of 0.4 cm gap were added 8×10^6 cells and 10 μg of plasmid pCKR5 for expression of human CCR5, and electroporation was carried out under 0.25 kV of voltage and 960 μF of capacitance. The cells were transferred into Ham's F12 medium containing 10% fetal calf serum, and cultivated for 24 hours. The cells were again taken off and centrifuged, and suspended in Ham's F12 medium containing 10% fetal calf serum and 500 μg/ml of geneticin (Life Tech Oriental). The suspension was diluted to give 10^4 cells/ml of the suspension, which was inoculated on a 96 well plate (Becton Dickinson) to give geneticin resistant cells.
The resulting geneticin resistant cells were cultivated in 96 well plate (Becton Dickinson), and cells expressing CCR5 were selected from the geneticin resistant cells. That is, in assay buffer (Ham's F12 medium containing 0.5% BSA and 20 mM HEPES (Wako Pure Chemical, pH7.2)) to which was added 200 pM of [^125I]-RANTES (Amersham) as a ligand, a binding reaction was carried out at room temperature for 46 minutes, and the buffer was washed with cooled PBS. To the buffer was added 50 μl/well of 1M NaOH, and the mixture was stirred. Radioactivity was determined with a y-counter to select CCR5/CHO cells which specifically bind to the ligand.
The CCR5/CHO cells were inoculated on 96 well microplate (5×10^4 cells/well) and cultivated for 24 hours. The medium was removed by means of suction, and to each well was added an assay buffer containing Test Compound (1 μM) and then 100 pM of [^125I]-RANTES (Amersham) as a ligand. A binding assay was carried out at room temperature for 40 minutes, and an assay buffer was removed by means of suction. […]

T1 sequence (P51681 whole entry): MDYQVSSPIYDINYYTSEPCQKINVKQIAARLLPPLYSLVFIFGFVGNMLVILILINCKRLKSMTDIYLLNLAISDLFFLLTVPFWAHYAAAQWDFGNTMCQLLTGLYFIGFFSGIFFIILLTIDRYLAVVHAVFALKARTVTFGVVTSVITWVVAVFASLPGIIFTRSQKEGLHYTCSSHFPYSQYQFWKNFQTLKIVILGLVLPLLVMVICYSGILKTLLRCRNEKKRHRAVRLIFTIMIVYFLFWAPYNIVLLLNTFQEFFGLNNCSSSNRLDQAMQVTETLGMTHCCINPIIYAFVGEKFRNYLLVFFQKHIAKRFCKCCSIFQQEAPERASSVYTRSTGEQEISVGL

SMILES | melting point [°C] | inhibition at 1 µM (human CCR5) [%]
CCCCOCCOc1ccc(-c2ccc3c(c2)C=C(C(=O)Nc2ccc(CN(C)C4CCOCC4)cc2)CCN3Cc2nnnn2C)cc1 [Compound 101, 7-[4-(2-butoxyethoxy)phenyl]-N-[4-[N-methyl-N-(tetrahydropyran-4-yl)aminomethyl]phenyl]-1-(1-methyltetrazol-5-ylmethyl)-2,3-dihydro-1-benzazepine-4-carboxamide] | 132 to 135 | 100
C=CCN1CCC(C(=O)Nc2ccc(CN(C)C3CCOCC3)cc2)=Cc2cc(-c3ccc(OCCOCCCC)cc3)ccc21 [Compound 50, 1-allyl-7-(4-butoxyethoxyphenyl)-N-[4-[[N-methyl-N-(tetrahydropyran-4-yl)amino]methyl]phenyl]-2,3-dihydro-1-benzazepine-4-carboxamide] | 103 to 104 | 100
CCCOCCOc1ccc(-c2ccc3c(c2)C=C(C(=O)Nc2ccc(CN(C)C4CCOCC4)cc2)CCN3CCC)cc1 [Compound 26, N-[4-[[N-methyl-N-(tetrahydro-2H-pyran-4-yl)amino]methyl]phenyl]-7-[4-(2-propoxyethoxy)phenyl]-1-propyl-2,3-dihydro-1H-1-benzazepine-4-carboxamide] | 128 to 130 | 100
CCCCOCCOc1ccc(-c2ccc3c(c2)C=C(C(=O)Nc2ccc(CN(C)C4CCOCC4)cc2)CCN3Cc2ccccc2)cc1 [Compound 33, 1-benzyl-7-[4-(2-butoxyethoxy)phenyl]-N-[4-[[N-methyl-N-(tetrahydro-2H-pyran-4-yl)amino]methyl]phenyl]-2,3-dihydro-1H-1-benzazepine-4-carboxamide] | 127 to 131 | 98
CCCCOCCOc1ccc(-c2ccc3c(c2)C=C(C(=O)Nc2ccc(CN(C)C4CCOCC4)cc2)CCN3CCC)cc1 [Compound 27, 7-[4-(2-butoxyethoxy)phenyl]-N-[4-[[N-methyl-N-(tetrahydro-2H-pyran-4-yl)amino]methyl]phenyl]-1-propyl-2,3-dihydro-1H-1-benzazepine-4-carboxamide] | 122 to 124 | 100
CCOCCCOc1ccc(-c2ccc3c(c2)C=C(C(=O)Nc2ccc(CN(C)C4CCOCC4)cc2)CCN3C=O)cc1 [Compound 2, 7-[4-(3-ethoxypropoxy)phenyl]-1-formyl-N-[4-[[N-methyl-N-(tetrahydro-2H-pyran-4-yl)amino]methyl]phenyl]-2,3-dihydro-1H-1-benzazepine-4-carboxamide] | 166 to 169 | 96
CCCCOCCOc1ccc(-c2ccc3c(c2)C=C(C(=O)Nc2ccc(CN(C)C4CCOCC4)cc2)CCN3CC2CC2)cc1 [Compound 35, 7-[4-(2-butoxyethoxy)phenyl]-1-cyclopropylmethyl-N-[4-[[N-methyl-N-(tetrahydro-2H-pyran-4-yl)amino]methyl]phenyl]-2,3-dihydro-1H-1-benzazepine-4-carboxamide] | 92 to 94 | 100
CCOc1cc(-c2ccc3c(c2)C=C(C(=O)Nc2ccc(CN(C)C4CCOCC4)cc2)CCN3C=O)ccc1OCCOC(C)C [Compound 23, 7-[3-ethoxy-4-(2-propoxy)ethoxyphenyl]-1-formyl-N-[4-[[N-methyl-N-(tetrahydro-2H-pyran-4-yl)amino]methyl]phenyl]-2,3-dihydro-1H-1-benzazepine-4-carboxamide] | 117 to 119 | 97
C=CCN1CCC(C(=O)Nc2ccc(CN(C)C3CCOCC3)cc2)=Cc2cc(-c3ccc(OCCOCCC)cc3)ccc21 [Compound 49, 1-allyl-N-[4-[[N-methyl-N-(tetrahydropyran-4-yl)amino]methyl]phenyl]-7-(4-propoxyethoxyphenyl)-2,3-dihydro-1-benzazepine-4-carboxamide] | 110 to 111 | 100
CCCCOCCOc1ccc(-c2ccc3c(c2)C=C(C(=O)Nc2ccc(CN(C)C4CCOCC4)cc2)CCN3c2csc(C)n2)cc1 [Compound 45, 7-[4-(2-butoxyethoxy)phenyl]-1-(2-methylthiazol-4-yl)-N-[4-[[N-methyl-N-(tetrahydro-2H-pyran-4-yl)amino]methyl]phenyl]-2,3-dihydro-1H-1-benzazepine-4-carboxamide] | 115 to 123 | 100
CCCCOCCOc1ccc(-c2ccc3c(c2)C=C(C(=O)Nc2ccc(CN(C)C4CCOCC4)cc2)CCN3CCCOC)cc1 [Compound 104, 7-[4-(2-butoxyethoxy)phenyl]-1-(3-methoxypropyl)-N-[4-[[N-methyl-N-(tetrahydropyran-4-yl)amino]methyl]phenyl]-2,3-dihydro-1H-1-benzazepine-4-carboxamide] | 87 to 90 | 98
CCCCOCCOc1ccc(-c2ccc3c(c2)C=C(C(=O)Nc2ccc(CN(C)C4CCCOC4)cc2)CCN3Cc2cc(C)ns2)cc1 (centres unmarked) [Compound 77, 7-(4-butoxyethoxyphenyl)-1-[(3-methylisothiazol-5-yl)methyl]-N-[4-[[N-methyl-N-(tetrahydropyran-5-yl)amino]methyl]phenyl]-2,3-dihydro-1-benzazepine-4-carboxamide] |  | 97
CCCCOCCOc1ccc(-c2ccc3c(c2)C=C(C(=O)Nc2ccc(CN(C)C4CCOCC4)cc2)CCN3Cc2ccsc2)cc1 [Compound 58, 7-(4-butoxyethoxyphenyl)-N-[4-[[N-methyl-N-(tetrahydropyran-4-yl)amino]methyl]phenyl]-1-(3-thienylmethyl)-2,3-dihydro-1-benzazepine-4-carboxamide] | 122 to 123 | 99
CCCCOCCOc1ccc(-c2ccc3c(c2)C=C(C(=O)Nc2ccc(CN(C)C4CCOCC4)cc2)CCN3c2ccc3c(c2)OCO3)cc1 [Compound 43, 7-[4-(2-butoxyethoxy)phenyl]-1-(3,4-methylenedioxyphenyl)-N-[4-[[N-methyl-N-(tetrahydro-2H-pyran-4-yl)amino)methyl]phenyl]-2,3-dihydro-1H-1-benzazepine-4-carboxamide] |  | 100
